# PubChem BioAssay (NCI)
# “And” between values parts separate entries of the source, which are not always exact repeats. Identical values can stand only once.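 A five-concentration, 48-hour dose response in 96-well plates underlies each endpoint, interpolated linearly between surrounding concentrations. GI50: concentration for 50% inhibition of growth. TGI: total growth inhibition.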
# Tests used:
# Test in all cases: inhibition of tumour cell growth, NCI panel, 48 h
# 786-0 renal = tested on: 786-0 renal
# EKVX NSCLC = tested on: EKVX NSCLC
# HCC-2998 colon = tested on: HCC-2998 colon
# HCT-116 colon = tested on: HCT-116 colon
# HT29 colon = tested on: HT29 colon
# OVCAR-3 ovarian = tested on: OVCAR-3 ovarian
# OVCAR-5 ovarian = tested on: OVCAR-5 ovarian
# RXF 393 renal = tested on: RXF 393 renal
# SF-268 CNS = tested on: SF-268 CNS
# SNB-75 CNS = tested on: SNB-75 CNS
SMILES,GI50 (786-0 renal),TGI (786-0 renal),GI50 (EKVX NSCLC),TGI (EKVX NSCLC),GI50 (HCC-2998 colon),TGI (HCC-2998 colon),GI50 (HCT-116 colon),TGI (HCT-116 colon),GI50 (HT29 colon),TGI (HT29 colon),GI50 (OVCAR-3 ovarian),TGI (OVCAR-3 ovarian),GI50 (OVCAR-5 ovarian),TGI (OVCAR-5 ovarian),GI50 (RXF 393 renal),TGI (RXF 393 renal),GI50 (SF-268 CNS),TGI (SF-268 CNS),GI50 (SNB-75 CNS),TGI (SNB-75 CNS)
C/C(=C\c1ccn(-c2ccc(N)c(C(F)(F)F)c2)n1)[C@@H]1C[C@@H]2O[C@]2(C)CCC[C@H](C)[C@H](O)[C@@H](C)C(=O)C(C)(C)[C@@H](O)CC(=O)O1,0.0175 µM,12.1 µM,0.344 µM,> 32.5 µM,0.0317 µM,> 20.4 µM,0.00733 µM,> 29.3 µM,0.00542 µM,6.13 µM,0.00997 µM,1.46 µM,0.025 µM,> 26.1 µM,0.0111 µM,0.435 µM,0.0349 µM,> 32.5 µM,0.00413 µM,0.0876 µM
O=C1c2ccccc2C(=O)N1/N=C\c1ccc(Br)cc1,> 100 µM,> 100 µM,> 100 µM,> 100 µM,> 100 µM,> 100 µM,> 100 µM,> 100 µM,> 100 µM,> 100 µM,> 100 µM,> 100 µM,> 100 µM,> 100 µM,–,> 10 µM,> 100 µM,> 100 µM,> 100 µM,> 100 µM
N=c1nc(N)c2cc3c(N)nc(=N)c3cc12,–,56.6 µM,–,75.3 µM,–,> 100 µM,–,34.4 µM,–,> 100 µM,–,75.2 µM,–,73.9 µM,–,25.3 µM,–,13.1 µM,–,42.6 µM
COc1cccc(-c2nn(-c3ccccc3)cc2-c2ccnc(NCCNS(=O)(=O)c3ccc(C(F)(F)F)cc3)c2)c1,2.63 µM,21.4 µM,3.16 µM,> 100 µM,3.36 µM,24.8 µM,3.27 µM,15.8 µM,2.32 µM,5.75 µM,2.59 µM,7.3 µM,4.98 µM,> 100 µM,2.1 µM,5.5 µM,3.54 µM,> 100 µM,3.18 µM,37.1 µM
O=C1C(=O)c2cc([N+](=O)[O-])ccc2-c2ccccc21,1.97 µM,3.39 µM,1.62 µM,3.16 µM,1.77 µM,3.18 µM,1.43 µM,2.82 µM,1.95 µM,3.9 µM,1.42 µM,2.76 µM,1.82 µM,3.36 µM,1.96 µM,3.43 µM,1.29 µM,2.62 µM,1.47 µM,2.8 µM
Nc1nc(N)c2nc(CNc3ccc(C(=O)CC(CCC(=O)O)C(=O)O)cc3)cnc2n1 (stereo not drawn),0.0566 µM,> 100 µM,0.517 µM,> 100 µM,0.179 µM,> 96.2 µM,< 0.0185 µM,> 100 µM,0.0417 µM,> 100 µM,> 100 µM,> 100 µM,–,> 100 µM,> 100 µM,> 100 µM,0.197 µM,> 100 µM,4.71 µM,> 100 µM
CC1(C)CCC(=O)c2c(O)ccc(O)c21,–,> 100 µM,–,> 100 µM,–,> 100 µM,–,> 100 µM,–,> 100 µM,–,> 100 µM,–,> 100 µM,–,77.7 µM,–,> 100 µM,–,98.3 µM
COc1ccc2cc(C(=O)c3ccccc3C(=O)O)ccc2c1,–,> 100 µM,–,> 100 µM,–,> 100 µM,–,> 100 µM,–,> 100 µM,–,> 100 µM,–,> 100 µM,–,> 100 µM,–,> 100 µM,–,> 100 µM
CC1=CC2=C(OCO1)C(=O)c1ccccc1C2=O,–,> 56.9 µM,–,> 100 µM,–,> 100 µM,–,19.6 µM,–,16.8 µM,–,13.3 µM,–,10.8 µM,–,12.5 µM,–,26.1 µM,–,9.1 µM
CCOC(=O)C12CCCC1(O)N(NC(=O)c1cccc(Cl)c1)C(C)=C2C(=O)OC (stereo not drawn),–,> 100 µM,–,> 100 µM,–,> 100 µM,–,> 100 µM,–,> 100 µM,–,> 100 µM,–,> 100 µM,–,> 100 µM,–,> 100 µM,–,> 100 µM
CCCC(OCC)(OCC)OCC,–,> 100 µM,–,> 100 µM,–,> 100 µM,–,> 100 µM,–,> 100 µM,–,> 100 µM,–,> 100 µM,–,> 100 µM,–,> 100 µM,–,> 100 µM
CC1(C)SC2C(C(=O)O)N=C(Cc3ccccc3)N2C1C(=O)O (stereo not drawn),–,42.1 µM,–,29.7 µM,–,56.9 µM,–,> 100 µM,–,29 µM,–,> 100 µM,–,> 100 µM,–,> 100 µM,–,98.1 µM,–,49.2 µM
COC(=O)C1=CC(O)CCC1c1ccc(OC)cc1 (stereo not drawn),–,> 100 µM,–,> 100 µM,–,> 100 µM,–,> 100 µM,–,> 100 µM,–,> 100 µM,–,> 100 µM,–,> 100 µM,–,> 100 µM,–,> 100 µM
Cc1cc(C)c(C(=O)O)c(N)c1O,–,> 100 µM,–,> 100 µM,–,> 100 µM,–,> 100 µM,–,> 100 µM,–,> 100 µM,–,> 100 µM,–,> 100 µM,–,> 100 µM,–,> 100 µM
CSc1nc(NC2OCC(OC(C)=O)C(OC(C)=O)C2OC(C)=O)c(N=CC=Nc2c(NC3OCC(OC(C)=O)C(OC(C)=O)C3OC(C)=O)nc(SC)n(C)c2=O)c(=O)n1C (stereo not drawn),–,> 100 µM,–,> 100 µM,–,> 100 µM,–,> 100 µM,–,> 100 µM,–,> 100 µM,–,> 100 µM,–,> 100 µM,–,> 100 µM,–,> 100 µM
COc1ccc2[nH]c3c4c(c5cc(C(C)(C)C)ccc5c3c2c1)C(=O)N(c1ccccc1)C4=O,–,> 100 µM,–,> 100 µM,–,47.4 µM,–,> 100 µM,–,> 100 µM,–,> 100 µM,–,> 100 µM,–,> 100 µM,–,> 100 µM,–,> 100 µM
Cc1cc(Cl)ccc1Nc1sc(C(=O)c2cc3cc(Cl)ccc3o2)c(N)c1C#N,–,28.6 µM,–,> 100 µM,–,7.24 µM,–,> 100 µM,–,> 100 µM,–,> 55.3 µM,–,> 100 µM,–,> 100 µM,–,26.9 µM,–,20.8 µM
CN1CCN(C(=O)c2ccc(NC(=O)Nc3ccc(N(C)c4ccnc(Nc5ccc(CS(C)(=O)=O)cc5)n4)cc3)cc2)CC1,> 25 µM,> 25 µM,> 25 µM,> 25 µM,> 25 µM,> 25 µM,10.1 µM,> 25 µM,11.4 µM,> 25 µM,7.44 µM,> 19.4 µM,> 25 µM,> 25 µM,24.2 µM,> 25 µM,9.95 µM,> 25 µM,12.7 µM,> 25 µM
Cc1cc(N(CCOS(C)(=O)=O)CCOS(C)(=O)=O)ccc1C=Nc1ccc(-c2csc(-c3ccccc3)n2)c(Cl)c1,–,17.7 µM,–,29.1 µM,–,15.8 µM,–,40.5 µM,–,31.5 µM,–,40.9 µM,–,55 µM,–,7.65 µM,–,54.8 µM,–,14.1 µM
CS(=O)(=O)CCNCc1ccc(-c2ccc3ncnc(Nc4ccc(OCc5ccccc5)c(C(F)(F)F)c4)c3c2)o1,5.32 µM,11 µM,7.87 µM,> 25 µM,4.35 µM,8.25 µM,4.27 µM,7.88 µM,4.95 µM,9.05 µM,7.37 µM,19.2 µM,4.87 µM,12.5 µM,3.53 µM,7.77 µM,7.99 µM,> 25 µM,6.21 µM,24.7 µM
CCCCCCCCCCCCCCCCC1=CC(=O)C=C(OC)C1=O,–,> 100 µM,–,> 100 µM,–,> 100 µM,–,> 100 µM,–,> 100 µM,–,> 100 µM,–,> 100 µM,–,> 100 µM,–,> 100 µM,–,> 100 µM
C=C(C)C(=O)NC(N)=NC#N,30 µM,140 µM,165 µM,> 90 µM and 392 µM,–,261 µM,131 µM,257 µM,102 µM,248 µM,129 µM,259 µM,–,304 µM,63 µM,65.7 µM and 200 µM,139 µM,62.5 µM and 354 µM,154 µM,289 µM
COc1ccc(-c2coc3ncnc(N)c23)cc1,> 25 µM,> 25 µM,> 25 µM,> 25 µM,> 25 µM,> 25 µM,> 25 µM,> 25 µM,> 25 µM,> 25 µM,> 25 µM,> 25 µM,> 25 µM,> 25 µM,> 25 µM,> 25 µM,> 25 µM,> 25 µM,> 25 µM,> 25 µM
NC1=NC(=O)N2CC12 (stereo not drawn),160 µM,> 100 µM and 506 µM,123 µM,> 100 µM and 603 µM,520 µM,> 100 µM and 1250 µM,73.9 µM,166 µM,400 µM,> 100 µM and 3130 µM,171 µM,> 100 µM and 519 µM,170 µM,528 µM,–,> 100 µM and 334 µM,–,> 100 µM and 209 µM,240 µM,> 100 µM and 822 µM
C#C[C@@]1(O)[C@@H](CO)O[C@@H](n2cc(Cl)c3c(N)ncnc32)[C@@H]1O,0.322 µM,1.33 µM,0.261 µM,2.43 µM,0.186 µM,0.532 µM,0.0221 µM,> 100 µM,0.0436 µM,–,0.233 µM,1.79 µM,0.425 µM,> 84.2 µM,0.299 µM,0.813 µM,0.333 µM,21.2 µM,0.283 µM,0.714 µM
O=c1oc2ccc(Cl)cc2c(=O)n1-c1ccc(Cl)cc1F,1.76 µM,4.8 µM,0.688 µM,11.3 µM,2.36 µM,8.09 µM,0.442 µM,1.7 µM,3.33 µM,> 33.5 µM,0.355 µM,13.8 µM,3.83 µM,> 95 µM,0.512 µM,1.85 µM,0.419 µM,7.07 µM,0.219 µM,1.54 µM
CCOC(=O)[C@H](CSSc1ncnc2cc[nH]c12)NC(=O)[C@@H](C)c1ccc2cc(OC)ccc2c1,0.347 µM,> 100 µM,> 100 µM,> 100 µM,1.29 µM,> 100 µM,0.474 µM,> 100 µM,1.38 µM,> 100 µM,0.125 µM,> 100 µM,0.929 µM,> 100 µM,1.62 µM,> 100 µM,2.74 µM,> 100 µM,0.388 µM,> 100 µM
COc1cc2c(c(OC)c1OC)-c1ccc([O-])c(=O)cc1[C@@H](NC(C)=O)CC2.COc1cc2c(c(OC)c1OC)-c1ccc([O-])c(=O)cc1[C@@H](NC(C)=O)CC2.[Cu+2],7.9 µM,> 100 µM,4.64 µM,> 100 µM,2.58 µM,7.2 µM,3.2 µM,> 100 µM,3.43 µM,> 100 µM,2.16 µM,5.19 µM,14.8 µM,> 100 µM,3.87 µM,> 100 µM,3.89 µM,22.7 µM,5.39 µM,> 100 µM
Cc1cc(NC(=O)c2ccc(NS(=O)(=O)CCO)cc2N2CCC3(CC2)CC3)nc(N2CCC(F)(F)CC2)n1,14.9 µM,30.6 µM,14.2 µM,28.8 µM,1.53 µM,17.8 µM,11.7 µM,26.8 µM,0.0755 µM,14.2 µM,0.0365 µM,2.49 µM,11.4 µM,23.6 µM,0.26 µM,6.58 µM,13.1 µM,29 µM,1.15 µM,15.6 µM
N=c1ccn2c(n1)OC1C(OP(=O)(O)O)C(CO)OC12 (stereo not drawn),–,> 100 µM,–,> 100 µM,–,96.4 µM,–,> 100 µM,–,> 100 µM,–,> 100 µM,–,> 100 µM,–,> 100 µM,–,> 100 µM,–,> 100 µM
